PubChem BioAssay AID1259407 (Chemical Carcinogenesis Research Information System (CCRIS), 2018)
Activity calls are given as the source filed them. How the calls were made is not given here.

Test system: CCRIS mutagenicity, Ames/micronucleus/aberration tests
Experiment: CCRIS mutagenicity studies
[1] = Test System: AMES SALMONELLA TYPHIMURIUM, Strain/Indicator: TA98, Metabolic Activation: NONE, Method: PREINCUBATION
[2] = Test System: AMES SALMONELLA TYPHIMURIUM, Strain/Indicator: TA100, Metabolic Activation: NONE, Method: PREINCUBATION
[3] = Test System: AMES SALMONELLA TYPHIMURIUM, Strain/Indicator: TA1535, Metabolic Activation: NONE, Method: PREINCUBATION
[4] = Test System: AMES SALMONELLA TYPHIMURIUM, Strain/Indicator: TA1537, Metabolic Activation: NONE, Method: PREINCUBATION
[5] = Test System: AMES SALMONELLA TYPHIMURIUM, Strain/Indicator: TA98, Metabolic Activation: NONE, Method: STANDARD PLATE
[6] = Test System: AMES SALMONELLA TYPHIMURIUM, Strain/Indicator: TA98, Metabolic Activation: RAT, LIVER, S-9, AROCLOR 1254, Method: STANDARD PLATE

For `O=C1CC(O)C(O)c2ccc3c4c(ccc3c21)CCC4` (stereo unspecified), the mutagenic call (Test System: AMES SALMONELLA TYPHIMURIUM, Strain/Indicator: TA100, Metabolic Activation: RAT, LIVER, MICROSOMES, 15,16-DIHYDROCYCLOPENTA[A]PHENANTHREN-17-ONE, Method: STANDARD PLATE) was “inactive; negative”, the mutagenic call (Test System: AMES SALMONELLA TYPHIMURIUM, Strain/Indicator: TA100, Metabolic Activation: RAT, LIVER, MICROSOMES, AROCLOR 1254, Method: STANDARD PLATE) was “active; positive” and the mutagenic call (Test System: AMES SALMONELLA TYPHIMURIUM, Strain/Indicator: TA100, Metabolic Activation: RAT, LIVER, MICROSOMES, BENZO[A]PYRENE, Method: STANDARD PLATE) was “active; positive”. The mutagenic call (Test System: AMES SALMONELLA TYPHIMURIUM, Strain/Indicator: TA100, Metabolic Activation: RAT, LIVER, MICROSOMES, CLOFIBRATE, Method: STANDARD PLATE) was “inactive; negative”, the mutagenic call (Test System: AMES SALMONELLA TYPHIMURIUM, Strain/Indicator: TA100, Metabolic Activation: RAT, LIVER, MICROSOMES, DEXAMETHASONE, Method: STANDARD PLATE) was “inactive; negative” and the mutagenic call (Test System: AMES SALMONELLA TYPHIMURIUM, Strain/Indicator: TA100, Metabolic Activation: RAT, LIVER, MICROSOMES, ISONIAZID, Method: STANDARD PLATE) was “inactive; negative”. For the same molecule, the mutagenic call (Test System: AMES SALMONELLA TYPHIMURIUM, Strain/Indicator: TA100, Metabolic Activation: RAT, LIVER, MICROSOMES, PHENOBARBITONE, Method: STANDARD PLATE) was “inactive; negative”.

In the case of `Nc1ccc(C=O)cc1`, the mutagenic call [1] is reported as “inactive; negative”, the mutagenic call (Test System: AMES SALMONELLA TYPHIMURIUM, Strain/Indicator: TA98, Metabolic Activation: RAT LIVER S-9, PHENOBARBITAL AND BETA-NAPHTHOFLAVONE (30%), Method: PREINCUBATION) is reported as “inactive; negative” and the mutagenic call (Test System: AMES SALMONELLA TYPHIMURIUM, Strain/Indicator: TA98, Metabolic Activation: RAT LIVER S-9, PHENOBARBITAL AND BETA-NAPHTHOFLAVONE, Method: PREINCUBATION) is reported as “inactive; negative”. For the same molecule, the mutagenic call [2] was “inactive; negative”, the mutagenic call (Test System: AMES SALMONELLA TYPHIMURIUM, Strain/Indicator: TA100, Metabolic Activation: RAT LIVER S-9, PHENOBARBITAL AND BETA-NAPHTHOFLAVONE (30%), Method: PREINCUBATION) was “inactive; negative” and the mutagenic call (Test System: AMES SALMONELLA TYPHIMURIUM, Strain/Indicator: TA100, Metabolic Activation: RAT LIVER S-9, PHENOBARBITAL AND BETA-NAPHTHOFLAVONE, Method: PREINCUBATION) was “inactive; negative”. For the same molecule, the mutagenic call [3] was “inactive; negative”, the mutagenic call (Test System: AMES SALMONELLA TYPHIMURIUM, Strain/Indicator: TA1535, Metabolic Activation: RAT LIVER S-9, PHENOBARBITAL AND BETA-NAPHTHOFLAVONE (30%), Method: PREINCUBATION) was “inactive; negative” and the mutagenic call (Test System: AMES SALMONELLA TYPHIMURIUM, Strain/Indicator: TA1535, Metabolic Activation: RAT LIVER S-9, PHENOBARBITAL AND BETA-NAPHTHOFLAVONE, Method: PREINCUBATION) was “inactive; negative”. For the same molecule, the mutagenic call [4] was “inactive; negative”, the mutagenic call (Test System: AMES SALMONELLA TYPHIMURIUM, Strain/Indicator: TA1537, Metabolic Activation: RAT LIVER S-9, PHENOBARBITAL AND BETA-NAPHTHOFLAVONE (30%), Method: PREINCUBATION) was “inactive; negative” and the mutagenic call (Test System: AMES SALMONELLA TYPHIMURIUM, Strain/Indicator: TA1537, Metabolic Activation: RAT LIVER S-9, PHENOBARBITAL AND BETA-NAPHTHOFLAVONE, Method: PREINCUBATION) was “inactive; negative”. For the same molecule, the mutagenic call (Test System: E.COLI, Strain/Indicator: WP2UVRA, Metabolic Activation: NONE, Method: PREINCUBATION) was “inactive; negative”, the mutagenic call (Test System: E.COLI, Strain/Indicator: WP2UVRA, Metabolic Activation: RAT LIVER S-9, PHENOBARBITAL AND BETA-NAPHTHOFLAVONE (30%), Method: PREINCUBATION) was “inactive; negative” and the mutagenic call (Test System: E.COLI, Strain/Indicator: WP2UVRA, Metabolic Activation: RAT LIVER S-9, PHENOBARBITAL AND BETA-NAPHTHOFLAVONE, Method: PREINCUBATION) was “inactive; negative”.

In the case of `CCOP(=S)(OCC)Oc1cnc2ccccc2n1`, the mutagenic call [5] is reported as “inactive; negative”, the mutagenic call (Test System: AMES SALMONELLA TYPHIMURIUM, Strain/Indicator: TA98, Metabolic Activation: S-9, NADPH GENERATING SYSTEM, Method: STANDARD PLATE) is reported as “inactive; negative” and the mutagenic call (Test System: AMES SALMONELLA TYPHIMURIUM, Strain/Indicator: TA102, Metabolic Activation: NONE, Method: STANDARD PLATE) is reported as “inactive; negative”. The mutagenic call (Test System: AMES SALMONELLA TYPHIMURIUM, Strain/Indicator: TA102, Metabolic Activation: S-9, NADPH GENERATING SYSTEM, Method: STANDARD PLATE) was “inactive; negative”, the mutagenic call (Test System: AMES SALMONELLA TYPHIMURIUM, Strain/Indicator: TA1535, Metabolic Activation: NONE, Method: STANDARD PLATE) was “inactive; negative” and the mutagenic call (Test System: AMES SALMONELLA TYPHIMURIUM, Strain/Indicator: TA1535, Metabolic Activation: S-9, NADPH GENERATING SYSTEM, Method: STANDARD PLATE) was “inactive; negative”. The mutagenic call (Test System: AMES SALMONELLA TYPHIMURIUM, Strain/Indicator: TA1537, Metabolic Activation: NONE, Method: STANDARD PLATE) was “inactive; negative” and the mutagenic call (Test System: AMES SALMONELLA TYPHIMURIUM, Strain/Indicator: TA1537, Metabolic Activation: S-9, NADPH GENERATING SYSTEM, Method: STANDARD PLATE) was “inactive; negative”.

For `CC(=C\C1=CCOC1=O)/C=C(C)/C=C/C=C(\C)C(=O)[C@]12O[C@H]1[C@@](O)(CCO)NC2=O`, the mutagenic call [2] was “active; positive”.

With `Cc1cnc2c(ccc3c2nc(N)n3C)n1` the mutagenic call (Test System: AMES SALMONELLA TYPHIMURIUM, Strain/Indicator: TA98, Metabolic Activation: RAT, LIVER, S-9, AROCLOR 1254, Method: PREINCUBATION) was “active; positive” and the mutagenic call [6] was “active; positive”.

In the case of `O=C(c1ccccc1)C1OC1c1ccccc1` (stereo unspecified), the mutagenic call [5] is reported as “inactive; negative”, the mutagenic call [6] is reported as “inactive; negative” and the mutagenic call (Test System: AMES SALMONELLA TYPHIMURIUM, Strain/Indicator: TA100, Metabolic Activation: NONE, Method: STANDARD PLATE) is reported as “active; positive”. For the same molecule, the mutagenic call (Test System: AMES SALMONELLA TYPHIMURIUM, Strain/Indicator: TA100, Metabolic Activation: RAT, LIVER, S-9, AROCLOR 1254, Method: STANDARD PLATE) was “active; positive”.

In the case of `CCc1c(O)c(=O)ccn1CC`, the mutagenic call (Test System: Mouse lymphoma, Strain/Indicator: L5178Y (tk+/tk-), Metabolic Activation: None, Method: Suspension/plate) is reported as “active; positive” and the mutagenic call (Test System: Mouse lymphoma, Strain/Indicator: L5178Y (tk+/tk-), Metabolic Activation: Rat, Liver, S-9, Aroclor 1254, Method: Suspension/plate) is reported as “active; positive”.

With `OCC(O)CO` the mutagenic call (End Point: IN VITRO CHROMOSOMAL ABERRATIONS, Test System: CHO-WBL CELLS, Metabolic Activation: NONE) was “inactive; negative”, the mutagenic call (Test System: AMES SALMONELLA TYPHIMURIUM, Strain/Indicator: TA97, Metabolic Activation: NONE, Method: PREINCUBATION) was “inactive; negative” and the mutagenic call (Test System: AMES SALMONELLA TYPHIMURIUM, Strain/Indicator: TA97, Metabolic Activation: RAT, LIVER, S-9, AROCLOR 1254, Method: PREINCUBATION) was “inactive; negative”. For the same molecule, the mutagenic call [1] was “inactive; negative”, the mutagenic call (Test System: AMES SALMONELLA TYPHIMURIUM, Strain/Indicator: TA98, Metabolic Activation: RAT, LIVER, S-9, KC 500, Method: PREINCUBATION) was “inactive; negative” and the mutagenic call [2] was “inactive; negative”. The mutagenic call (Test System: AMES SALMONELLA TYPHIMURIUM, Strain/Indicator: TA100, Metabolic Activation: RAT, LIVER, S-9, KC 500, Method: PREINCUBATION) was “inactive; negative”, the mutagenic call (Test System: AMES SALMONELLA TYPHIMURIUM, Strain/Indicator: TA102, Metabolic Activation: NONE, Method: PREINCUBATION) was “inactive; negative” and the mutagenic call (Test System: AMES SALMONELLA TYPHIMURIUM, Strain/Indicator: TA102, Metabolic Activation: RAT, LIVER, S-9, AROCLOR 1254, Method: PREINCUBATION) was “inactive; negative”. For the same molecule, the mutagenic call [3] was “inactive; negative”, the mutagenic call (Test System: AMES SALMONELLA TYPHIMURIUM, Strain/Indicator: TA1535, Metabolic Activation: RAT, LIVER, S-9, KC 500, Method: PREINCUBATION) was “inactive; negative” and the mutagenic call [4] was “inactive; negative”. The mutagenic call (Test System: AMES SALMONELLA TYPHIMURIUM, Strain/Indicator: TA1537, Metabolic Activation: RAT, LIVER, S-9, KC 500, Method: PREINCUBATION) was “inactive; negative”, the mutagenic call (Test System: AMES SALMONELLA TYPHIMURIUM, Strain/Indicator: TA1538, Metabolic Activation: NONE, Method: PREINCUBATION) was “inactive; negative” and the mutagenic call (Test System: AMES SALMONELLA TYPHIMURIUM, Strain/Indicator: TA1538, Metabolic Activation: RAT, LIVER, S-9, KC 500, Method: PREINCUBATION) was “inactive; negative”. The mutagenic call (Test System: E. COLI, Strain/Indicator: WP2 UVRA, Metabolic Activation: NONE, Method: PREINCUBATION) was “inactive; negative” and the mutagenic call (Test System: E. COLI, Strain/Indicator: WP2 UVRA, Metabolic Activation: RAT, LIVER, S-9, KC 500, Method: PREINCUBATION) was “inactive; negative”.
